Biological target: T1, Vasopressin V2 (Rattus norvegicus, UniProt Q00788)
T1 construct: Vasopressin V2 Agonist Effects of Test Compounds in Normal Conscious Water-loaded Rats; from tissue; host or cells: whole animal: conscious water-loaded Sprague-Dawley rats (V2 receptors of the kidney collecting ducts)
Test: Vasopressin V2 agonist effects of test compounds in normal conscious water-loaded rats
Type: in vivo
Details: oral dose of 10 mg/Kg, water-loaded Sprague-Dawley (CD) rats; for Changes in Urinary Osmolality: osmolality changes expressed as percent of control, urine collected for four hours; for Urine Volume (% decrease): percent decrease in urine volume vs. control, urine collected for four hours after dosing
Text: Vasopressin V2 Agonist Effects of Test Compounds in Normal Conscious Water-loaded Rats:
Male or female normotensive Sprague-Dawley rats (Charles River Laboratories, Inc., Kingston, N.Y.) of 350-500 g body weight were supplied with standard rodent diet (Purina Rodent Lab. Chow 5001) and water ad libitum. On the day of test, rats were placed individually into metabolic cages equipped with devices to separate the feces from the urine and containers for collection of urine. A test compound or a reference agent was given at an oral dose of 10 mg/Kg in a volume of 10 mL/Kg. The vehicle used was 20% dimethylsulfoxide (DMSO) in 2.5% preboiled corn starch. Thirty minutes after dosing the test compound, rats were gavaged with water at 30 mL/Kg into the stomach using a feeding needle. During the test, rats were not provided with water or food. Urine was collected for four hours after dosing of the test compound. At the end of four hours, urine volume was measured. Urinary osmolality was determined using a Fiske One-Ten Osmometer (Fiske Associates, Norwood, Mass., 02062) or an Advanced CRYOMATIC Osmometer, Model 3C2 (Advanced Instruments, Norwood, Mass.). Determinations of Na^+, K^+ and Cl^− ion were carried out using ion specific electrodes in a Beckman SYNCHRON EL-ISE Electrolyte System analyzer. The urinary osmolality should increase proportionally. In the screening test, two rats were used for each compound. If the difference in the urine volume of the two rats was greater than 50%, a third rat was used.

T1 sequence (Q00788 whole entry): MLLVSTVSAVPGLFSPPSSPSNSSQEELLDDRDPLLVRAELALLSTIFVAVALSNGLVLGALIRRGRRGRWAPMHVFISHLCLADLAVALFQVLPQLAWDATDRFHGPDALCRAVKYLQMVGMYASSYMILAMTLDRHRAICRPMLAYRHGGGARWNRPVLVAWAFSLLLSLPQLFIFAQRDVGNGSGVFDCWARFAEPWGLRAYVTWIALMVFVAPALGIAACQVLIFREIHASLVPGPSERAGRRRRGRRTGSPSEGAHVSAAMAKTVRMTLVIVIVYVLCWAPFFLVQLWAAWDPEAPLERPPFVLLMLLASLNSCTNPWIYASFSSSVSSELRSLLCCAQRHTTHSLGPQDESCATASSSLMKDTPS

Compound	Changes in Urinary Osmolality	Urine Volume (% decrease)
O=C(c1ccc2c(c1)CCO2)N1Cc2cccnc2Nc2ccccc21 [Example 3, (5,11-Dihydro-benzo[b]pyrido [2.3-e][1,4]Diazepin-6-yl)-(2,3-dihydro-benzofuran-5-yl)-methanone]	54% of control	29
Cn1ccc2cc(C(=O)N3Cc4cccnc4Nc4ccccc43)ccc21 [Example 1]	159% of control	74
Cn1ccc2cc(C(=O)N3Cc4cccnc4Oc4ccccc43)ccc21 [Example 6]	35% of control	21

Other lines, results leading:

Changes in Urinary Osmolality	Urine Volume (% decrease)	Compound
	13	O=C(c1ccc2nonc2c1)N1Cc2cccnc2Nc2ccccc21 [Example 4, Benzo[1,2,5]oxadiazol-5-yl-(5,11-dihydro-benzo[b]pyrido [2.3-e][1,4]Diazepin-6-yl)-methanone]
247% of control	61	O=C(c1ccc2c(c1)OCO2)N1Cc2cccnc2Nc2ccccc21 [Example 2, Benzo [1,3]Dioxol-5-yl-(5,11-dihydro-benzo[b]pyrido [2.3-e][1,4]Diazepin-6-yl)-mothanone]
78% of control	31	O=C(c1ccc2ncsc2c1)N1Cc2cccnc2Nc2ccccc21 [Example 5]

From patent publication US6620807B1, “Pyridobenzodiazepine and pyridobenzoxazepine carboxyamide vasopressin agonists” (Wyeth, priority 1999, dated 2003)
